Results from ChEMBL document CHEMBL5465560, “Selectivity Literature for EUbOPEN Chemogenomic Library” (2024).

Key:
[1] = biological target: Maternal embryonic leucine zipper kinase (Homo sapiens) (UniProt Q14680); assay: Selectivity interaction (KinomeScan (DiscoverX)) EUB0001049a MELK; conditions: at 1 µM
Misshapen-like kinase 1 = Misshapen-like kinase 1 (Homo sapiens, UniProt Q8N4C8); assay: Selectivity interaction (Enzymatic assay) EUB0001199aCl MINK1
[2] = biological target: MAP kinase-activated protein kinase 5 (Homo sapiens, UniProt Q8IW41); assay: Selectivity interaction (Kinase panel (33PanQinase(R) Activity Assay)) EUB0000877a MAPKAPK5
Aurora kinase B = Aurora kinase B (Homo sapiens, UniProt Q96GD4); assay: Selectivity interaction (ActivX KiNativ screen (kinase selectivity in THP-1 cell lysates)) EUB0000639a AURKB; type: subcellular; conditions: lysate, at 5 µM
[3] = biological target: Vascular endothelial growth factor receptor 2 (Homo sapiens, UniProt P35968); assay: Selectivity interaction (KinomeScan (DiscoverX)) EUB0000595a KDR; conditions: at 10 µM
[4] = biological target: Serine/threonine-protein kinase 16 (Homo sapiens, UniProt O75716); assay: Selectivity interaction (KinomeScan (DiscoverX)) EUB0000045b STK16
[5] = biological target: Dual specificity tyrosine-phosphorylation-regulated kinase 1A (Homo sapiens, UniProt Q13627); assay: Selectivity interaction (KinomeScan (DiscoverX)) EUB0000045b DYRK1A
[6] = biological target: Interferon-induced, double-stranded RNA-activated protein kinase (Homo sapiens) (UniProt P19525); assay: Selectivity interaction (KinomeScan (DiscoverX)) EUB0000618a EIF2AK2; conditions: at 10 µM
[7] = biological target: T1, Serine/threonine-protein kinase ULK2 (Homo sapiens) (UniProt Q8IYT8); conditions: at 10 µM
T1 sequence (whole entry): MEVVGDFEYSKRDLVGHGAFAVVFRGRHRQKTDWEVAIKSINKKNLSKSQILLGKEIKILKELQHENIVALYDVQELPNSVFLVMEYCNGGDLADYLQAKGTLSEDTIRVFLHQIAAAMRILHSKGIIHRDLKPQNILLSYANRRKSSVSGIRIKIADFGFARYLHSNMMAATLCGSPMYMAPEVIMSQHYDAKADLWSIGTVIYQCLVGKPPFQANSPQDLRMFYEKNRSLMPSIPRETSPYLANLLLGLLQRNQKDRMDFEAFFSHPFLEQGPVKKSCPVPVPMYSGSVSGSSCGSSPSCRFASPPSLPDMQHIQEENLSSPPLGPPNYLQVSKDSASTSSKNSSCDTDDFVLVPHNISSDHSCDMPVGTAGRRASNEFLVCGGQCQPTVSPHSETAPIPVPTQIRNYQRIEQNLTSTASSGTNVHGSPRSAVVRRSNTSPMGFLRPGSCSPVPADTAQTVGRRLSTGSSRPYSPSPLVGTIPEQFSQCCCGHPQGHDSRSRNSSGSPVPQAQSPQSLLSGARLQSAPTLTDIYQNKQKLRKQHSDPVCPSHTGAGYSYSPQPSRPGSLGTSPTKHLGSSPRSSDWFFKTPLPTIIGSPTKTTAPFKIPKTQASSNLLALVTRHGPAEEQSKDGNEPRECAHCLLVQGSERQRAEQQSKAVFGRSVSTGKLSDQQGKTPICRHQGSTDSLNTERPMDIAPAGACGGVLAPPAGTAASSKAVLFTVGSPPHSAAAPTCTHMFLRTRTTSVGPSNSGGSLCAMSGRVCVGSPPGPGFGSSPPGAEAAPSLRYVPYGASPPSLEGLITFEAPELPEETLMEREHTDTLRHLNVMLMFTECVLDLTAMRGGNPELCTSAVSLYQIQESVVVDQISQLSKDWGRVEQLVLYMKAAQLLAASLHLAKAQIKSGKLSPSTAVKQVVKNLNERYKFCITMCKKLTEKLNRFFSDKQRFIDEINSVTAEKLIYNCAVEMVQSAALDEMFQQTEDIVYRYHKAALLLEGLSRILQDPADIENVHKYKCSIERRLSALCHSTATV

[8] = biological target: Ribosomal protein S6 kinase alpha-3 (Homo sapiens, UniProt P51812); assay: Selectivity interaction (KinomeScan (DiscoverX)) EUB0001619a RPS6KA3; conditions: at 1 µM
[9] = biological target: BMP-2-inducible protein kinase (Homo sapiens) (UniProt Q9NSY1); assay: Selectivity interaction (KINOMEscan (DiscoverX)) EUB0001868a BMP2K; conditions: at 1 µM
[10] = biological target: Tyrosine-protein kinase Fes/Fps (Homo sapiens) (UniProt P07332); assay: Selectivity interaction (Kinase panel (Z-LYTE Assay)) EUB0001632a FES; conditions: at 10 µM
[11] = biological target: T2, Serine/threonine-protein kinase PLK4 (Homo sapiens) (UniProt O00444); assay: Selectivity interaction (LanthaScreen Eu Kinase Binding Assay) EUB0001632a PLK4; conditions: at 10 µM
T2 sequence (whole entry): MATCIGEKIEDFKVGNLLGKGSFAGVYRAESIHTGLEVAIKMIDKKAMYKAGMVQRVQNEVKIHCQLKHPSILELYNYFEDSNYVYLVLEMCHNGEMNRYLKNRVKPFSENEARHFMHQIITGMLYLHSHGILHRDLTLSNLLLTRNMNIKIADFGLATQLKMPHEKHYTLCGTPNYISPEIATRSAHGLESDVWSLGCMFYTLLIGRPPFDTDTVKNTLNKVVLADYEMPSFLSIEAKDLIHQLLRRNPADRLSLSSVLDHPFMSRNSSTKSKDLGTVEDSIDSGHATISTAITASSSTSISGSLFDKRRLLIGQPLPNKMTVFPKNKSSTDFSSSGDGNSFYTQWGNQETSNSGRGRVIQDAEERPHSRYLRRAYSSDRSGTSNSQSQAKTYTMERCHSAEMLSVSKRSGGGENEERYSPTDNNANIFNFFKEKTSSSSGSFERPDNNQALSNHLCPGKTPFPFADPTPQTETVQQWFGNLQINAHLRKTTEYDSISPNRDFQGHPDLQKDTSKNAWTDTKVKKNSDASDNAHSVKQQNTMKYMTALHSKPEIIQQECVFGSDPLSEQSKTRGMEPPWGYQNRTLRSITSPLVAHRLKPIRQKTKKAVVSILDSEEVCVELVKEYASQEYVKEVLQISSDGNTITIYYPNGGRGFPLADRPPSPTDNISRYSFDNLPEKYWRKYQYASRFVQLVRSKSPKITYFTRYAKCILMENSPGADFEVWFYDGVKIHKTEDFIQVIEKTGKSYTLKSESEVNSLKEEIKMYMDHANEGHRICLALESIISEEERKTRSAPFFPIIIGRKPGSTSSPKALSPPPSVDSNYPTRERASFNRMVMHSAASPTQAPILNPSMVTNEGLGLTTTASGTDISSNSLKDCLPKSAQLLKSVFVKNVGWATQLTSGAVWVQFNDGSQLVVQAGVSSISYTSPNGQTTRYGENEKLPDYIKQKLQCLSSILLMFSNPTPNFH

Sequence of Serine/threonine-protein kinase 16 (O75716 whole entry): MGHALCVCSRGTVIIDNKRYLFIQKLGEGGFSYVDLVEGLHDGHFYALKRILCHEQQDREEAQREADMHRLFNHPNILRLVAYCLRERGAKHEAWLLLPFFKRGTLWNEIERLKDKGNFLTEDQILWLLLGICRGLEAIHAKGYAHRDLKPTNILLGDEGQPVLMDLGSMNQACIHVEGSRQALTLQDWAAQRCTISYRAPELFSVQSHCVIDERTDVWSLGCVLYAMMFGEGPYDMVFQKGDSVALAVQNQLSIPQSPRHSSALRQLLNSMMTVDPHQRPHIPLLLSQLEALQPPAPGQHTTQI
Sequence of Aurora kinase B (Q96GD4 whole entry): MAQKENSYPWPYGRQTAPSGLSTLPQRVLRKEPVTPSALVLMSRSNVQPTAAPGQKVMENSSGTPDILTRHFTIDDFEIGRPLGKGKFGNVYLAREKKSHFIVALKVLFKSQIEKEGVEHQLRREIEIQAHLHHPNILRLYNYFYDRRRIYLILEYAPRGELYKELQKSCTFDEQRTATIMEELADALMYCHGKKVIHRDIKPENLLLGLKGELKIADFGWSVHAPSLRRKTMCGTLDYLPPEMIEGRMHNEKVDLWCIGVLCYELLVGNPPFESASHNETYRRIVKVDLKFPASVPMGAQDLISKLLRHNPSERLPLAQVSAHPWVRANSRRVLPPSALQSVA
Sequence of Maternal embryonic leucine zipper kinase (Homo sapiens) (Q14680 whole entry, looked up): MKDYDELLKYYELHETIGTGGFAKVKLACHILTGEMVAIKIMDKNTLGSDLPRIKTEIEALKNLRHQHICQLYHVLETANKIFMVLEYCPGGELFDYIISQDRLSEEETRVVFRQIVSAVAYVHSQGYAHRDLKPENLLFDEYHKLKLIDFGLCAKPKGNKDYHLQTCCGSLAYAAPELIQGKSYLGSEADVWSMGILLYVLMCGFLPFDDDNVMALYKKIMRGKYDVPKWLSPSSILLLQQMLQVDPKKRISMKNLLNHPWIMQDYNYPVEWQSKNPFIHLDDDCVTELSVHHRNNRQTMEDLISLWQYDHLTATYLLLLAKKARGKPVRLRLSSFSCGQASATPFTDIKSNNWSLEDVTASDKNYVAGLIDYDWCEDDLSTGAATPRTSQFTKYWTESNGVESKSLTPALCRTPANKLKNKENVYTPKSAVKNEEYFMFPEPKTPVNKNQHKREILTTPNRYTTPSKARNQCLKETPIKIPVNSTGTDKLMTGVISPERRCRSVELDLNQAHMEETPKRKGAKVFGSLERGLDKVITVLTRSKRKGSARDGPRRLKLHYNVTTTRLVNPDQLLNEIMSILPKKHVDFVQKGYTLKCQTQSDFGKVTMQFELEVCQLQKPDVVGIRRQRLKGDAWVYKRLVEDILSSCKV
Sequence of BMP-2-inducible protein kinase (Homo sapiens) (Q9NSY1 whole entry, looked up): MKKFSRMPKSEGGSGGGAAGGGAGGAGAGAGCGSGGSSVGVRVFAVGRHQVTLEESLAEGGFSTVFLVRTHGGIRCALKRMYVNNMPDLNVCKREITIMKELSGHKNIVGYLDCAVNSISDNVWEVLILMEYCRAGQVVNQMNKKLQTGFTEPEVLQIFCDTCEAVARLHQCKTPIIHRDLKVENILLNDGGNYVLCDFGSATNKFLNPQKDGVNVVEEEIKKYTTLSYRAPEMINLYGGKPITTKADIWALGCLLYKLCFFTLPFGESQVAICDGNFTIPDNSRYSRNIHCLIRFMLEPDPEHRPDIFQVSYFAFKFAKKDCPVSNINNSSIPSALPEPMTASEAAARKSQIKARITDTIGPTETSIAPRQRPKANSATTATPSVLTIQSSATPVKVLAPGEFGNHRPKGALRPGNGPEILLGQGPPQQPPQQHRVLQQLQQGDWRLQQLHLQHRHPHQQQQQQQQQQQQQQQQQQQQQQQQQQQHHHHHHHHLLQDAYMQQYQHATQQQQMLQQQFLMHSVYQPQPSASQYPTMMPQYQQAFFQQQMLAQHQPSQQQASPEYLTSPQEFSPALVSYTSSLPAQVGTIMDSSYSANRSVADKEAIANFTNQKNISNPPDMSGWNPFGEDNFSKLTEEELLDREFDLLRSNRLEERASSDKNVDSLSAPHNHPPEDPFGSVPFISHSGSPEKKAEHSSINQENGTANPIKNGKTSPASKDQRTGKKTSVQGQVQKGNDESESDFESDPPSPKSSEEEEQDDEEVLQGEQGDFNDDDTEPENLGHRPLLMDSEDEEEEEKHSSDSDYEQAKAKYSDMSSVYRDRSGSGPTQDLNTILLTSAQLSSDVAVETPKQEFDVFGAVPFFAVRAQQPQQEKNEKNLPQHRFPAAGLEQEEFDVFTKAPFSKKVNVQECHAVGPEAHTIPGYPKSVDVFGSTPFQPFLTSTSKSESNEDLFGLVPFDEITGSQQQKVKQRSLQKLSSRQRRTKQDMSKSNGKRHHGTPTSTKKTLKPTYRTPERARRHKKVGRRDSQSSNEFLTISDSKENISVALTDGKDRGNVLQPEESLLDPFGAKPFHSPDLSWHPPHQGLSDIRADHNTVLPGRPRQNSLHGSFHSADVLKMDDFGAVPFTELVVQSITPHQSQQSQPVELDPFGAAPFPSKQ
Sequence of Interferon-induced, double-stranded RNA-activated protein kinase (Homo sapiens) (P19525 whole entry): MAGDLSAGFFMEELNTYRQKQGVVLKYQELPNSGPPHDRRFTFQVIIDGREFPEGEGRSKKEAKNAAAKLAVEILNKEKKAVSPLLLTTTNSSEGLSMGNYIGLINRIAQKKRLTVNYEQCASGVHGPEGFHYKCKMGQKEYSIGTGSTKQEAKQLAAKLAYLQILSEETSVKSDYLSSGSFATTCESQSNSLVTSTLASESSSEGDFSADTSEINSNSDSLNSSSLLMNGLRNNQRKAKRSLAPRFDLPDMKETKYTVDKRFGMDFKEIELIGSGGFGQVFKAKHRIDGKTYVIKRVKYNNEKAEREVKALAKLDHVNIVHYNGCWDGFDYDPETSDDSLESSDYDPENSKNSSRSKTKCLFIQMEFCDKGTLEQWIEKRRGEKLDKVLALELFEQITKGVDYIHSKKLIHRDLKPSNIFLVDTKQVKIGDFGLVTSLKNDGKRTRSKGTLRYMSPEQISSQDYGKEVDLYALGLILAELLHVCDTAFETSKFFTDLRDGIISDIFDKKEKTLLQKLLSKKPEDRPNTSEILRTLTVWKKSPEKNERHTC
Sequence of Vascular endothelial growth factor receptor 2 (P35968 whole entry): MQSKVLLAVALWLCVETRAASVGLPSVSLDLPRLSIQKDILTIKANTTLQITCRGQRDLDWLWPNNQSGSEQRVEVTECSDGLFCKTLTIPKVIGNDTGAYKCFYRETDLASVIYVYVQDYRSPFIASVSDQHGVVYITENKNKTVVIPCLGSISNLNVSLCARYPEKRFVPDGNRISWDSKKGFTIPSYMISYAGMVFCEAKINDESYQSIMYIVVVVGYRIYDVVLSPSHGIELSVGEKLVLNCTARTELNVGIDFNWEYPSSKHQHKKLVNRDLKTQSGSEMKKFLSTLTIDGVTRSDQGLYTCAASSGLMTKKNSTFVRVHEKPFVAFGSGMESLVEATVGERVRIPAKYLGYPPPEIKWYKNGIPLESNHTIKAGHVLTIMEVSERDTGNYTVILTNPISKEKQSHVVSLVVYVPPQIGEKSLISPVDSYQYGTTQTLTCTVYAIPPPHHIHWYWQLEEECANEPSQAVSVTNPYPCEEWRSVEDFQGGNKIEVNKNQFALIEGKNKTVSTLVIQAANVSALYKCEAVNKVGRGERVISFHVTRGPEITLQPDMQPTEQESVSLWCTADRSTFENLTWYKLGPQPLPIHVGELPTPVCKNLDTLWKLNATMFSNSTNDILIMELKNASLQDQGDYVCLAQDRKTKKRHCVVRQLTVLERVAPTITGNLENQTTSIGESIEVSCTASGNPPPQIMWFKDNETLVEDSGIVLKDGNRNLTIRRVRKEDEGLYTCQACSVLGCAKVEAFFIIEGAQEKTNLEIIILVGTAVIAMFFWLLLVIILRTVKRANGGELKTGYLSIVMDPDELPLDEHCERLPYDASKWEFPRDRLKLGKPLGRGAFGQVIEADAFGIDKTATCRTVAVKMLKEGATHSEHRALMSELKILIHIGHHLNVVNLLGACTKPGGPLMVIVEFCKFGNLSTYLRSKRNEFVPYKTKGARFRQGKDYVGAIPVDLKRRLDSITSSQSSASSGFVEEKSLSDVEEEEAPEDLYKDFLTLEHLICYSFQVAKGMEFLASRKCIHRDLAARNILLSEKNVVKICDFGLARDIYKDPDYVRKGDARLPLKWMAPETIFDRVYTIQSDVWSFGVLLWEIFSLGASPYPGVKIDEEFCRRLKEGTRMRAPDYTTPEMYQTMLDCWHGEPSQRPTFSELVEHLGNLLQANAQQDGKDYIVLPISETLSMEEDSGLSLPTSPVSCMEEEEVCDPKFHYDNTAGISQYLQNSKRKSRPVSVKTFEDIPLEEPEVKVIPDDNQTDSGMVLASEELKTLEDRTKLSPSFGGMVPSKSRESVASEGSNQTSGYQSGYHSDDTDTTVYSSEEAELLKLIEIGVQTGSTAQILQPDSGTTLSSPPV
Sequence of MAP kinase-activated protein kinase 5 (Q8IW41 whole entry): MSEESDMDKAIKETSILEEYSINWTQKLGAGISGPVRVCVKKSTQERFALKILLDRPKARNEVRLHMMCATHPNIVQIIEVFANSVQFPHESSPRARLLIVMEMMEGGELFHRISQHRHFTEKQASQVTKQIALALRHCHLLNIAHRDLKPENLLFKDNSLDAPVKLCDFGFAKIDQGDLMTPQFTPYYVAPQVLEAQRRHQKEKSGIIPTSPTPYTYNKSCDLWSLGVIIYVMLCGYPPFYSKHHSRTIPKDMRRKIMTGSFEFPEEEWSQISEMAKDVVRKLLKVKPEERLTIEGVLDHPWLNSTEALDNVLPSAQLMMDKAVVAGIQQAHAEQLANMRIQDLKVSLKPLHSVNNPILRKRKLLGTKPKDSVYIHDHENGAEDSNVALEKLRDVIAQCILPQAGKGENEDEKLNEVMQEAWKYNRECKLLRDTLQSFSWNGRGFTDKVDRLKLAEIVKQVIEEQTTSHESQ

Work on `COc1cc(Nc2nc(C)cc(-c3cnn4nc(OC)ccc34)n2)cc(C(F)(F)F)c1` yielded a % of control [1] of 97%.

`CN1Cc2nccc(-c3cn(C)nc3-c3ccc(F)cc3)c2C1=O` gave an IC50 (Misshapen-like kinase 1) of 1.57 µM.

Work on `CCC(=O)N1CC[C@H](Nc2ncnc3c2CN(c2cnc(OC)c(C(F)(F)F)c2)CC3)C1` [LENIOLISIB] yielded an IC50 [2] greater than 10 µM.

In the case of `CC[C@@H]1[C@H](F)C(=O)N[C@@H]1COc1nccc2cc(C(N)=O)c(OC)cc12` [ZIMLOVISERTIB], the % of inhibition (Aurora kinase B) is reported as 64.4%.

For `COCC(=O)NC/C=C/c1ccc2ncnc(Nc3ccc(Oc4ccc(C)nc4)c(C)c3)c2c1` [CP-724714], the % of control [3] was 100%.

`C=CC(=O)Nc1cc(-n2c(=O)ccc3cnc4ccc(-c5ccc(NS(C)(=O)=O)cc5)cc4c32)ccc1C` was tested, and the % of control ([4]; at 1 µM) was 98%, the % of control ([4]; at 10 µM) was 28% and the % of control ([5]; at 1 µM) was 100%. It also gave a % of control ([5]; at 10 µM) of 62%.

In the case of `O[C@H]1CC[C@H](Nc2ncc3nc(Nc4c(F)cc(F)cc4F)n([C@H]4CCOC4)c3n2)CC1`, the % of control [6] is reported as 100%.

With `Cc1cc([C@@H](C)Nc2ccccc2C(=O)O)c2nc(N3CCOCC3)cc(=O)n2c1` [AZD-6482] the % of control [7] was 100%.

`N#Cc1cccc(-c2c[nH]c3ncnc(N4CCOCC4)c23)c1` was tested, and the % of control [8] was 46%.

Compound `Cc1cc(-c2ccnc(Nc3cnn(C)c3)n2)ccc1CNC(=O)N1CC(OC(C)C)C1` has a % of control [9] of 18%.

In the case of `Cn1cc(-n2cnc3c(NCc4nc5cc(Cl)c(Cl)cc5[nH]4)nc(N4CCOCC4)nc32)cn1`, the % of control [10] is reported as 3.47% and the % of inhibition [11] is reported as 0.376%.
